Assay results as given in ChEMBL document CHEMBL4715814, “Design, synthesis and biological activity evaluation of novel 4-subtituted 2-naphthamide derivatives as AcrB inhibitors” (2018).
Active and inactive are the calls of the source. No cut-off for these calls is given here.

Legend:
Escherichia coli [1] = test: Potentiation of TPP-induced antibacterial activity against wild type Escherichia coli BW25113 assessed as fold reduction in TPP MIC at 256 ug/ml incubated for 18 hrs under aerobic condition by checkerboard titration assay relative to TPP MIC alone; assay type: functional; conditions: dose 256 µg/ml
Cell membrane [2] = test: Induction of outer membrane permeabilization in wild type Escherichia coli BW25113 assessed as increase in nitrocefin hydrolysis at 512 ug/ml measured for 30 mins in presence of CCCP by spectrophotometry analysis; assay type: subcellular; conditions: dose 512.0 µg/ml
Escherichia coli [3] = test: Potentiation of TPP-induced antibacterial activity against AcrB deficient Escherichia coli BW25113 assessed as TPP MIC at 512 ug/ml incubated for 18 hrs under aerobic condition by checkerboard titration assay (reference value: 256 ug/ml); assay type: functional; conditions: dose 512 µg/ml
Escherichia coli [4] = test: Potentiation of chloramphenicol-induced antibacterial activity against AcrB deficient Escherichia coli BW25113 assessed as chloramphenicol MIC at 512 ug/ml incubated for 18 hrs under aerobic condition by checkerboard titration assay (reference value: 2 ug/ml); assay type: functional; conditions: dose 512 µg/ml
Escherichia coli [5] = test: Potentiation of TPP-induced antibacterial activity against wild type Escherichia coli BW25113 assessed as TPP MIC at 256 ug/ml incubated for 18 hrs under aerobic condition by checkerboard titration assay (reference value: 1024 ug/ml); assay type: functional; conditions: dose 256 µg/ml
Escherichia coli [6] = test: Potentiation of TPP-induced antibacterial activity against wild type Escherichia coli BW25113 assessed as TPP MIC at 128 ug/ml incubated for 18 hrs under aerobic condition by checkerboard titration assay (reference value: 1024 ug/ml); assay type: functional; conditions: dose 128 µg/ml
Escherichia coli [7] = test: Potentiation of chloramphenicol-induced antibacterial activity against wild type Escherichia coli BW25113 assessed as chloramphenicol MIC at 256 ug/ml incubated for 18 hrs under aerobic condition by checkerboard titration assay (reference value: 16 ug/ml); assay type: functional; conditions: dose 256 µg/ml
Escherichia coli [8] = test: Potentiation of chloramphenicol-induced antibacterial activity against wild type Escherichia coli BW25113 assessed as chloramphenicol MIC at 128 ug/ml incubated for 18 hrs under aerobic condition by checkerboard titration assay (reference value: 16 ug/ml); assay type: functional; conditions: dose 128 µg/ml
Escherichia coli [9] = test: Potentiation of rifampicin-induced antibacterial activity against wild type Escherichia coli BW25113 assessed as rifampicin MIC at 128 ug/ml incubated for 18 hrs under aerobic condition by checkerboard titration assay (reference value: 16 ug/ml); assay type: functional; conditions: dose 128 µg/ml
Escherichia coli [10] = test: Potentiation of rifampicin-induced antibacterial activity against wild type Escherichia coli BW25113 assessed as rifampicin MIC at 256 ug/ml incubated for 18 hrs under aerobic condition by checkerboard titration assay (reference value: 16 ug/ml); assay type: functional; conditions: dose 256 µg/ml
Cell membrane [11] = test: Disruption of inner membrane potential in wild type Escherichia coli BW25113 at 512 ug/ml preincubated for 10 mins followed by glucose stimulation and CCCP addition by DiOC2 probe based fluorimetric analysis; assay type: subcellular; conditions: dose 512.0 µg/ml
Escherichia coli [12] = test: Potentiation of erythromycin-induced antibacterial activity against wild type Escherichia coli BW25113 assessed as erythromycin MIC at 256 ug/ml incubated for 18 hrs under aerobic condition by checkerboard titration assay (reference value: 128 ug/ml); assay type: functional; conditions: dose 256 µg/ml
Escherichia coli [13] = test: Potentiation of erythromycin-induced antibacterial activity against wild type Escherichia coli BW25113 assessed as erythromycin MIC at 128 ug/ml incubated for 18 hrs under aerobic condition by checkerboard titration assay (reference value: 128 ug/ml); assay type: functional; conditions: dose 128 µg/ml
Escherichia coli [14] = test: Potentiation of erythromycin-induced antibacterial activity against AcrB deficient Escherichia coli BW25113 assessed as erythromycin MIC at 512 ug/ml incubated for 18 hrs under aerobic condition by checkerboard titration assay (reference value: 32 ug/ml); assay type: functional; conditions: dose 512 µg/ml
Escherichia coli [15] = test: Potentiation of rifampicin-induced antibacterial activity against wild type Escherichia coli BW25113 assessed as rifampicin MIC at 512 ug/ml incubated for 18 hrs under aerobic condition by checkerboard titration assay (reference value: 16 ug/ml); assay type: functional; conditions: dose 512 µg/ml
Escherichia coli [16] = test: Potentiation of TPP-induced antibacterial activity against wild type Escherichia coli BW25113 assessed as TPP MIC at 512 ug/ml incubated for 18 hrs under aerobic condition by checkerboard titration assay (reference value: 1024 ug/ml); assay type: functional; conditions: dose 512 µg/ml
Escherichia coli [17] = test: Potentiation of chloramphenicol-induced antibacterial activity against wild type Escherichia coli BW25113 assessed as chloramphenicol MIC at 512 ug/ml incubated for 18 hrs under aerobic condition by checkerboard titration assay (reference value: 16 ug/ml); assay type: functional; conditions: dose 512 µg/ml
Escherichia coli [18] = test: Potentiation of erythromycin-induced antibacterial activity against wild type Escherichia coli BW25113 assessed as erythromycin MIC at 512 ug/ml incubated for 18 hrs under aerobic condition by checkerboard titration assay (reference value: 128 ug/ml); assay type: functional; conditions: dose 512 µg/ml
Escherichia coli [19] = test: Potentiation of chloramphenicol-induced antibacterial activity against wild type Escherichia coli BW25113 assessed as fold reduction in chloramphenicol MIC at 128 ug/ml incubated for 18 hrs under aerobic condition by checkerboard titration assay relative to chloramphenicol MIC alone; assay type: functional; conditions: dose 128 µg/ml
Escherichia coli [20] = test: Antibacterial activity against Wild type Escherichia coli BW25113 assessed as inhibition of AcrB efflux pump by mesuring the glucose-induced nile red efflux at 100 uM preincubated with CCCP for 15 mins followed by compound addition after 15 mins nile red added and incubated for 3 hrs in shaker by fluorimetric analysis; assay type: functional, organism-based; conditions: time 195.0 min
Escherichia coli [21] = test: Potentiation of TPP-induced antibacterial activity against AcrB deficient Escherichia coli BW25113 assessed as TPP MIC at 128 ug/ml incubated for 18 hrs under aerobic condition by checkerboard titration assay (reference value: 256 ug/ml); assay type: functional; conditions: dose 128 µg/ml
Escherichia coli [22] = test: Potentiation of chloramphenicol-induced antibacterial activity against AcrB deficient Escherichia coli BW25113 assessed as chloramphenicol MIC at 128 ug/ml incubated for 18 hrs under aerobic condition by checkerboard titration assay (reference value: 2 ug/ml); assay type: functional; conditions: dose 128 µg/ml
Escherichia coli [23] = test: Potentiation of chloramphenicol-induced antibacterial activity against AcrB deficient Escherichia coli BW25113 assessed as chloramphenicol MIC at 256 ug/ml incubated for 18 hrs under aerobic condition by checkerboard titration assay (reference value: 2 ug/ml); assay type: functional; conditions: dose 256 µg/ml
Escherichia coli [24] = test: Potentiation of TPP-induced antibacterial activity against AcrB deficient Escherichia coli BW25113 assessed as TPP MIC at 256 ug/ml incubated for 18 hrs under aerobic condition by checkerboard titration assay (reference value: 256 ug/ml); assay type: functional; conditions: dose 256 µg/ml
Escherichia coli [25] = test: Potentiation of erythromycin-induced antibacterial activity against AcrB deficient Escherichia coli BW25113 assessed as erythromycin MIC at 128 ug/ml incubated for 18 hrs under aerobic condition by checkerboard titration assay (reference value: 32 ug/ml); assay type: functional; conditions: dose 128 µg/ml
Escherichia coli [26] = test: Potentiation of erythromycin-induced antibacterial activity against AcrB deficient Escherichia coli BW25113 assessed as erythromycin MIC at 256 ug/ml incubated for 18 hrs under aerobic condition by checkerboard titration assay (reference value: 32 ug/ml); assay type: functional; conditions: dose 256 µg/ml
Escherichia coli [27] = test: Antibacterial activity against AcrB deficient Escherichia coli BW25113 assessed as inhibition of bacterial growth at 256 ug/ml after 18 hrs by microtitre broth dilution assay; assay type: functional, organism-based; conditions: dose 256.0 µg/ml
Escherichia coli [28] = test: Antibacterial activity against wild type Escherichia coli BW25113 assessed as inhibition of bacterial growth at 256 ug/ml after 18 hrs by microtitre broth dilution assay; assay type: functional, organism-based; conditions: dose 256.0 µg/ml
Escherichia coli [29] = test: Potentiation of erythromycin-induced antibacterial activity against wild type Escherichia coli BW25113 assessed as fold reduction in erythromycin MIC at 128 ug/ml incubated for 18 hrs under aerobic condition by checkerboard titration assay relative to erythromycin MIC alone; assay type: functional; conditions: dose 128 µg/ml
Escherichia coli [30] = test: Potentiation of chloramphenicol-induced antibacterial activity against wild type Escherichia coli BW25113 assessed as fold reduction in chloramphenicol MIC at 256 ug/ml incubated for 18 hrs under aerobic condition by checkerboard titration assay relative to chloramphenicol MIC alone; assay type: functional; conditions: dose 256 µg/ml
Escherichia coli [31] = test: Antibacterial activity against Wild type Escherichia coli BW25113 assessed as inhibition of AcrB efflux pump by mesuring the glucose-induced nile red efflux at 500 uM preincubated with CCCP for 15 mins followed by compound addition after 15 mins nile red added and incubated for 3 hrs in shaker by fluorimetric analysis; assay type: functional, organism-based; conditions: time 195.0 min
Escherichia coli [32] = test: Potentiation of chloramphenicol-induced antibacterial activity against wild type Escherichia coli BW25113 assessed as fold reduction in chloramphenicol MIC at 512 ug/ml incubated for 18 hrs under aerobic condition by checkerboard titration assay relative to chloramphenicol MIC alone; assay type: functional; conditions: dose 512 µg/ml
Escherichia coli [33] = test: Potentiation of TPP-induced antibacterial activity against AcrB deficient Escherichia coli BW25113 assessed as TPP MIC at 32 ug/ml incubated for 18 hrs under aerobic condition by checkerboard titration assay (reference value: 256 ug/ml); assay type: functional; conditions: dose 32 µg/ml
Escherichia coli [34] = test: Potentiation of chloramphenicol-induced antibacterial activity against AcrB deficient Escherichia coli BW25113 assessed as chloramphenicol MIC at 32 ug/ml incubated for 18 hrs under aerobic condition by checkerboard titration assay (reference value: 2 ug/ml); assay type: functional; conditions: dose 32 µg/ml
Escherichia coli [35] = test: Potentiation of erythromycin-induced antibacterial activity against AcrB deficient Escherichia coli BW25113 assessed as erythromycin MIC at 32 ug/ml incubated for 18 hrs under aerobic condition by checkerboard titration assay (reference value: 32 ug/ml); assay type: functional; conditions: dose 32 µg/ml

SMILES	fold change (FC) (Escherichia coli [1])	Activity (Cell membrane [2])	MIC (Escherichia coli [4]) [µg/mL]	MIC (Escherichia coli [5]) [µg/mL]	MIC (Escherichia coli [6]) [µg/mL]	MIC (Escherichia coli [7]) [µg/mL]	MIC (Escherichia coli [8]) [µg/mL]	MIC (Escherichia coli [9]) [µg/mL]	MIC (Escherichia coli [10]) [µg/mL]	Activity (Cell membrane [11])	MIC (Escherichia coli [12]) [µg/mL]	MIC (Escherichia coli [13]) [µg/mL]	MIC (Escherichia coli [16]) [µg/mL]	MIC (Escherichia coli [17]) [µg/mL]	MIC (Escherichia coli [18]) [µg/mL]	MIC (Escherichia coli [23]) [µg/mL]	MIC (Escherichia coli [24]) [µg/mL]	MIC (Escherichia coli [26]) [µg/mL]	Activity (Escherichia coli [31])	further results
CCCCCCNC(=O)c1cc(OCc2ccccc2)c2ccccc2c1	4	Active	2	256	1020	4	8	16	4	Active	128	128	–	–	–	–	–	–	–	MIC (Escherichia coli [3]): 256 µg/mL
CC(C)CCOc1cc(C(N)=O)cc2ccccc12	–	–	2	512	–	8	–	–	16	–	64	–	256	4	32	–	–	–	–	MIC (Escherichia coli [3]): 256 µg/mL; MIC (Escherichia coli [14]): 32 µg/mL; MIC (Escherichia coli [15]): 16 µg/mL
NC(=O)c1cc(OCCNC2CCCCC2)c2ccccc2c1	–	Active	–	–	1020	–	4	8	–	inactive	–	16	–	–	–	1	128	8	–	fold change (FC) (Escherichia coli [19]): 8; Activity (Escherichia coli [20]): Active; MIC (Escherichia coli [21]): 256 µg/mL; MIC (Escherichia coli [22]): 2 µg/mL; MIC (Escherichia coli [25]): 16 µg/mL; Activity (Escherichia coli [27]): Active; Activity (Escherichia coli [28]): Active; fold change (FC) (Escherichia coli [29]): 8
NC(=O)c1cc(OCCNCc2ccc(O)cc2)c2ccccc2c1	4	inactive	–	256	1020	4	8	8	8	inactive	128	128	–	–	–	2	256	32	inactive	fold change (FC) (Escherichia coli [30]): 4
O=C(Nc1ccccc1)c1cc(OCc2ccccc2)c2ccccc2c1	–	Active	–	1020	–	16	–	–	16	Active	128	–	512	16	128	2	256	–	Active	MIC (Escherichia coli [15]): 8 µg/mL
O=C(NCc1ccccc1Cl)c1cc(OCc2ccccc2)c2ccccc2c1	4	Active	–	256	1020	4	16	16	4	Active	64	128	–	–	–	2	256	32	Active	–
O=C(Nc1ccccc1C(F)(F)F)c1cc(OCc2ccccc2)c2ccccc2c1	–	–	0.5	1020	–	8	–	–	16	–	128	–	1020	2	128	–	–	–	–	fold change (FC) (Escherichia coli [32]): 8; MIC (Escherichia coli [14]): 16 µg/mL
CC(C)CCOc1cc(C(=O)NCCc2ccccc2)cc2ccccc12	–	inactive	–	1020	1020	4	8	16	16	inactive	32	64	–	–	–	–	–	–	inactive	MIC (Escherichia coli [33]): 32 µg/mL; MIC (Escherichia coli [34]): 2 µg/mL; MIC (Escherichia coli [35]): 2 µg/mL
